This is an account of results in US11052092B2, “N-{[2-(piperidin-1-yl)phenyl](phenyl)methyl}-2-(3-oxo-3,4-dihydro-2H-1,4-benzoxazin-7-yl)acetamide derivatives and related compounds as ROR-gamma modulators for treating autoimmune diseases” (Genfit, priority 2017, dated 2021).

Structures can show the parent of a compound that is named as a salt.

As for `Cc1ccc(C(NC(=O)C2(c3ccc4c(c3)OCC(=O)N4)CC2)c2ccc(C)o2)c(Br)c1` (stereo not drawn) (as salt: HCl) [Cpd. 135, N-[(2-bromo-4-methylphenyl)(5-methylfuran-2-yl)methyl]-1-(3-oxo-3,4-dihydro-2H-1,4-benzoxazin-7-yl)cyclopropane-1-carboxamide], the melting point (commonly the temperature of the solid-liquid transition) amounted to 82 °C.

For `Cc1ccc(C(NC(=O)C2(c3ccc4c(c3)OCC(=O)N4)CC2)c2cccc(C)n2)c(C)c1` (stereo not drawn) (as salt: HCl) [Cpd. 136, N-[(2,4-dimethylphenyl)(6-methylpyridin-2-yl)methyl]-1-(3-oxo-3,4-dihydro-2H-1,4-benzoxazin-7-yl)cyclopropane-1-carboxamide], the melting point stood at 94 °C.

`Cc1ccc(C(NC(=O)C2(c3ccc4c(c3)OCC(=O)N4)CC2)c2ccco2)c(C)c1` (stereo not drawn) (as salt: HCl) [Cpd. 139, N-[(2,4-dimethylphenyl)(furan-2-yl)methyl]-1-(3-oxo-3,4-dihydro-2H-1,4-benzoxazin-7-yl)cyclopropane-1-carboxamide] had a melting point of 180 °C.

As for `Cc1ccc(C(NC(=O)C2(c3ccc4c(c3)OCC(=O)N4)CC2)c2ccc(Cl)cc2)c(C)c1` (stereo not drawn) (as salt: HCl) [Cpd. 140, N-[(4-chlorophenyl)(2,4-dimethylphenyl)methyl]-1-(3-oxo-3,4-dihydro-2H-1,4-benzoxazin-7-yl)cyclopropane-1-carboxamide], the melting point amounted to 99 °C. Next, `Cc1ccc(C(NC(=O)C2(c3ccc4c(c3)CCC4=O)CC2)c2ccc(C)o2)c(C)c1` (stereo not drawn) (as salt: HCl) [Cpd. 141, N-[(2,4-dimethylphenyl)(5-methylfuran-2-yl)methyl]-1-(1-oxo-2,3-dihydro-1H-inden-5-yl)cyclopropane-1-carboxamide]: 56 °C; `Cc1ccc(C(NC(=O)C2(c3ccc4c(c3)OCC(=O)N4)CC2)c2cccc(Cl)c2)c(C)c1` (stereo not drawn) (as salt: HCl) [Cpd. 143, N-[(3-chlorophenyl)(2,4-dimethylphenyl)methyl]-1-(3-oxo-3,4-dihydro-2H-1,4-benzoxazin-7-yl)cyclopropane-1-carboxamide]: 181 °C; `Cc1ccc(C(NC(=O)C2(c3ccc4c(n3)OCC(=O)N4)CC2)c2ccc(C)o2)c(C)c1` (stereo not drawn) (as salt: HCl) [Cpd. 144, N-[(2,4-dimethylphenyl)(5-methylfuran-2-yl)methyl]-1-{2-oxo-1H,2H,3H-pyrido[2,3-b][1,4]oxazin-6-yl}cyclopropane-1-carboxamide]: 84 °C. Next, `Cc1ccc(C(NC(=O)C2(c3ccc4c(c3)OCC(=O)N4)CC2)c2ccc(Cl)o2)c(N2CCCCC2)c1` (stereo not drawn) (as salt: HCl) [Cpd. 145, N-[(5-chlorofuran-2-yl)[4-methyl-2-(piperidin-1-yl)phenyl]methyl]-1-(3-oxo-3,4-dihydro-2H-1,4-benzoxazin-7-yl)cyclopropane-1-carboxamide]: 199 °C.

Compound `Cc1ccc(C(NC(=O)C2(c3ccc4c(c3)C(C)(C)C(=O)N4)CC2)c2ccc(C)o2)c(C)c1` (stereo not drawn) (as salt: HCl) [Cpd. 146, 1-(3,3-dimethyl-2-oxo-2,3-dihydro-1H-indol-5-yl)-N-[(2,4-dimethylphenyl)(5-methylfuran-2-yl)methyl]cyclopropane-1-carboxamide] showed a melting point of 82 °C. Next, `COc1ccc(C(NC(=O)C2(c3ccc4c(c3)OCS(=O)(=O)N4)CC2)c2ccc(C)o2)c(Br)c1` (stereo not drawn) (as salt: HCl) [Cpd. 147, N-[(2-bromo-4-methoxyphenyl)(5-methylfuran-2-yl)methyl]-1-(2,2-dioxo-1,3-dihydro-4,2,1-benzoxathiazin-6-yl)cyclopropane-1-carboxamide]: 115 °C; `Cc1ccc(C(NC(=O)C2(c3ccc4c(c3)OCS(=O)(=O)N4)CC2)c2ccc(C)o2)c(N(C)C)c1` (stereo not drawn) (as salt: HCl) [Cpd. 148, N-{[2-(dimethylamino)-4-methylphenyl](5-methylfuran-2-yl)methyl}-1-(2,2-dioxo-1,3-dihydro-4,2,1-benzoxathiazin-6-yl)cyclopropane-1-carboxamide]: 105 °C. With `Cc1ccc(C(NC(=O)C2(c3ccc4c(c3)OCS(=O)(=O)N4)CC2)c2ccc(Cl)o2)c(C)c1` (stereo not drawn) (as salt: HCl) [Cpd. 149, N-[(5-chlorofuran-2-yl)(2,4-dimethylphenyl)methyl]-1-(2,2-dioxo-1,3-dihydro-4,2,1-benzoxathiazin-6-yl)cyclopropane-1-carboxamide] the figure was 102 °C. Next, `Cc1cnc(C(NC(=O)C2(c3ccc4c(c3)OCS(=O)(=O)N4)CC2)c2ccc(C)o2)c(C)c1` (stereo not drawn) (as salt: HCl) [Cpd. 153, N-[(3,5-dimethylpyridin-2-yl)(5-methylfuran-2-yl)methyl]-1-(2,2-dioxo-1,3-dihydro-4,2,1-benzoxathiazin-6-yl)cyclopropane-1-carboxamide]: 189 °C; `Cc1ccc(C(NC(=O)C2(c3ccc4c(c3)OCC(=O)N4)CC2)c2ccc(C)o2)c(N(C)C)c1` (stereo not drawn) (as salt: HCl) [Cpd. 156, N-{[2-(dimethylamino)-4-methylphenyl](5-methylfuran-2-yl)methyl}-1-(3-oxo-3,4-dihydro-2H-1,4-benzoxazin-7-yl)cyclopropane-1-carboxamide]: 99 °C; `Cc1ccc(C(NC(=O)C2(c3ccc4c(c3)CS(=O)(=O)N4CC3CCOCC3)CC2)c2ccc(C)o2)c(C)c1` (stereo not drawn) (as salt: HCl) [Cpd. 157, N-[(2,4-dimethylphenyl)(5-methylfuran-2-yl)methyl]-1-[1-(oxan-4-ylmethyl)-2,2-dioxo-1,3-dihydro-2,1-benzothiazol-5-yl]cyclopropane-1-carboxamide]: 76 °C. Consider `Cc1ccc(C(NC(=O)C2(c3cc(F)c4c(c3)CC(=O)N4)CC2)c2ccc(C)o2)c(C)c1` (stereo not drawn) (as salt: HCl) [Cpd. 158, N-[(2,4-dimethylphenyl)(5-methylfuran-2-yl)methyl]-1-(7-fluoro-2-oxo-2,3-dihydro-1H-indol-5-yl)cyclopropane-1-carboxamide], for which the melting point came out at 102 °C. Next, `Cc1ccc(C(NC(=O)C2(c3ccc4c(c3)C(F)(F)C(=O)N4)CC2)c2ccc(C)o2)c(C)c1` (stereo not drawn) (as salt: HCl) [Cpd. 159, 1-(3,3-difluoro-2-oxo-2,3-dihydro-1H-indol-5-yl)-N-[(2,4-dimethylphenyl)(5-methylfuran-2-yl)methyl]cyclopropane-1-carboxamide]: 177 °C. With `Cc1ccc(C(NC(=O)C2(c3ccc4c(c3)CS(=O)(=O)N4C)CC2)c2ccc(Cl)o2)c(C)c1` (stereo not drawn) (as salt: HCl) [Cpd. 160, N-[(5-chlorofuran-2-yl)(2,4-dimethylphenyl)methyl]-1-(1-methyl-2,2-dioxo-1,3-dihydro-2,1-benzothiazol-5-yl)cyclopropane-1-carboxamide] the figure was 70 °C.

As to `Cc1ccc(C(NC(=O)C2(c3ccc4c(c3)OCO4)CC2)c2ccc(C)o2)c(Br)c1` (stereo not drawn) (as salt: HCl) [Cpd. 161, 1-(2H-1,3-benzodioxol-5-yl)-N-[(2-bromo-4-methylphenyl)(5-methylfuran-2-yl)methyl]cyclopropane-1-carboxamide], the melting point came out at 55 °C. With `Cc1ccc(C(NC(=O)C2(c3ccc4c(c3)CS(=O)(=O)N4CC3CCOCC3)CC2)c2ccc(C)o2)c(N2CCCCC2)c1` (stereo not drawn) (as salt: HCl) [Cpd. 162, N-{[4-methyl-2-(piperidin-1-yl)phenyl](5-methylfuran-2-yl)methyl}-1-[1-(oxan-4-ylmethyl)-2,2-dioxo-1,3-dihydro-2,1-benzothiazol-5-yl]cyclopropane-1-carboxamide] the figure was 87 °C; with `Cc1ccc(C(NC(=O)C2(c3ccc4c(c3)CS(=O)(=O)N4CC3CCOCC3)CC2)c2ccc(C)o2)c(Br)c1` (stereo not drawn) (as salt: HCl) [Cpd. 163, N-[(2-bromo-4-methylphenyl)(5-methylfuran-2-yl)methyl]-1-[1-(oxan-4-ylmethyl)-2,2-dioxo-1,3-dihydro-2,1-benzothiazol-5-yl]cyclopropane-1-carboxamide], 85 °C. Next, `Cc1ccc(C(NC(=O)C2(c3ccc4c(c3)OCO4)CC2)c2ccc(C)o2)c(N2CCCCC2)c1` (stereo not drawn) (as salt: HCl) [Cpd. 164, 1-(2H-1,3-benzodioxol-5-yl)-N-{[4-methyl-2-(piperidin-1-yl)phenyl](5-methylfuran-2-yl)methyl}cyclopropane-1-carboxamide]: 51 °C; `Cc1ccc(C(NC(=O)C2(c3ccc4c(c3)CCC4=NO)CC2)c2ccc(C)o2)c(C)c1` (stereo not drawn) (as salt: HCl) [Cpd. 165, N-[(2,4-dimethylphenyl)(5-methylfuran-2-yl)methyl]-1-[1-(hydroxyimino)-2,3-dihydro-1H-inden-5-yl]cyclopropane-1-carboxamide]: 68 °C.

In turn, `Cc1ccc(C(NC(=O)Cc2ccc3c(c2)CS(=O)(=O)N3CC2CCOCC2)c2ccc(C)o2)c(C)c1` (stereo not drawn) (as salt: HCl) [Cpd. 166, N-[(2,4-dimethylphenyl)(5-methylfuran-2-yl)methyl]-2-[1-(oxan-4-ylmethyl)-2,2-dioxo-1,3-dihydro-2,1-benzothiazol-5-yl]acetamide] displayed a melting point of 83 °C.

Regarding `Cc1ccc(C(NC(=O)Cc2ccc3c(c2)CS(=O)(=O)N3CC2CCOCC2)c2ccc(C)o2)c(N2CCCCC2)c1` (stereo not drawn) (as salt: HCl) [Cpd. 167, N-{[4-methyl-2-(piperidin-1-yl)phenyl](5-methylfuran-2-yl)methyl}-2-[1-(oxan-4-ylmethyl)-2,2-dioxo-1,3-dihydro-2,1-benzothiazol-5-yl]acetamide], the melting point stood at 85 °C. Next, `Cc1ccc(C(NC(=O)C2(c3ccc4c(c3)OCS(=O)(=O)N4C)CC2)c2ccc(C)o2)c(C)c1` (stereo not drawn) (as salt: HCl) [Cpd. 172, N-[(2,4-dimethylphenyl)(5-methylfuran-2-yl)methyl]-1-(1-methyl-2,2-dioxo-1,3-dihydro-4,2,1-benzoxathiazin-6-yl)cyclopropane-1-carboxamide]: 65 °C; `Cc1ccc(C(NC(=O)C2(c3ccc4c(c3)OCS(=O)(=O)N4C)CC2)c2ccc(C)o2)c(Br)c1` (stereo not drawn) (as salt: HCl) [Cpd. 173, N-[(2-bromo-4-methylphenyl)(5-methylfuran-2-yl)methyl]-1-(1-methyl-2,2-dioxo-1,3-dihydro-4,2,1-benzoxathiazin-6-yl)cyclopropane-1-carboxamide]: 71 °C.
